# Experimental data taken from US20040096465A1, “Novel receptors for $1(helicobater pyroli) and use thereof” (priority 2001, published 2004).
# Entries after “also recorded” stand apart in the source; their conditions may differ.
# Experiments:
# Helicobacter pylori [1] = assay: TLC bacterial overlay assay with 35S-labeled Helicobacter pylori; assay type: binding; conditions: for binding activity of neoglycolipid with regard to Helicobacter pylori: oligosaccharide reductively aminated with 4-hexadecylaniline (HDA); for binding of Helicobacter pylori to the glycosphingolipid on TLC plates: overlay with 35S-labeled bacteria, autoradiography, visual evaluation; for binding of Helicobacter pylori strain 032 to purified glycosphingolipids (FIGS. 7A and 7B): 4 μg per lane, autoradiography 72 h; for lowest amount of glycolipid giving a positive response on TLC plates: dilution series, semi-quantitative, evaluated visually, pentaglycosylceramide mean of 7 experiments; for binding of Helicobacter pylori strain 032 to purified glycosphingolipids (FIGS. 7A and 7B) / binding frequency: strain 032; for binding frequency: total number of plates about 100
# [2] = system: Helicobacter pylori binding to human gastrointestinal cell lines; conditions: Simon et al.; cited from earlier work
# Helicobacter pylori [3] = conditions: Mysore et al.; cited from earlier work
compound,measurement,setting,value
CCCCCCCCCCCCCCCCc1ccc(NC[C@H](O)[C@@H](O)[C@H](O[C@@H]2O[C@H](CO)[C@H](O)[C@H](O[C@@H]3O[C@H](CO)[C@@H](O[C@@H]4O[C@H](CO)[C@H](O)[C@H](O[C@@H]5O[C@H](CO)[C@@H](O)[C@H](O)[C@H]5NC(C)=O)[C@H]4O)[C@H](O)[C@H]3NC(C)=O)[C@H]2O)[C@H](O)CO)cc1 [GlcNAcβ3Galβ4GlcNAcβ3Galβ4Glc(red)-HDA],binding activity of neoglycolipid with regard to Helicobacter pylori,Helicobacter pylori [1],clear binding activity
CC(=O)N[C@H]1[C@H](OC[C@H]2OC(O)[C@H](O)[C@@H](O)[C@H]2O)O[C@H](CO)[C@@H](O[C@@H]2O[C@H](CO)[C@H](O)[C@H](O[C@@H]3O[C@H](CO)[C@@H](O)[C@H](O)[C@H]3NC(C)=O)[C@H]2O)[C@@H]1O (stereo partly drawn) [GlcNAcβ3Galβ4GlcNAcβ6Gal],binding activity of neoglycolipid with regard to Helicobacter pylori,Helicobacter pylori [1],some binding activity
Fucα2Galβ4GlcNAcβ3Galβ4Glcβ1Cer [H5-2],binding of Helicobacter pylori to the glycosphingolipid on TLC plates,Helicobacter pylori [1],absence of binding
same,binding of Helicobacter pylori to the glycosphingolipid on TLC plates,Helicobacter pylori [1]; listed as HS-2,inactive
GalNAcα3Galβ4GlcNAcβ3Galβ4GlcβCer,binding of Helicobacter pylori to the glycosphingolipid on TLC plates,Helicobacter pylori [1],bind Helicobacter pylori
same,binding of Helicobacter pylori to the glycosphingolipid on TLC plates,Helicobacter pylori [1]; listed as GalNAcα3 Galβ4GlcNAcβ3Galβ4GlcβCer,binding was also found
GalNAcβ3Galβ3Galβ4GlcNAcβ3Galβ4Glcβ3Cer [GalNAcβ3-B5],binding of Helicobacter pylori to the glycosphingolipid on TLC plates,Helicobacter pylori [1],non-binding
same,binding of Helicobacter pylori to the glycosphingolipid on TLC plates,Helicobacter pylori [1]; listed as GalNAcβ3Galβ3Galβ4GlcNAcβ3Galβ4Glcβ3Cer,did not appear to bind
same,binding of Helicobacter pylori to the glycosphingolipid on TLC plates,Helicobacter pylori [1]; listed as no. 25,complete loss of binding
GalNAcβ3Galβ4GlcNAcβ3Galβ4GlcβCer,binding of Helicobacter pylori to the glycosphingolipid on TLC plates,Helicobacter pylori [1],bind Helicobacter pylori
same,binding of Helicobacter pylori to the glycosphingolipid on TLC plates,Helicobacter pylori [1]; listed as x2 GSL,binding
same,binding of Helicobacter pylori strain 032 to purified glycosphingolipids (FIGS. 7A and 7B),Helicobacter pylori [1],binding was also found
Galα3(Fucα2)Galβ4GlcNAcβ3Galβ4Glcβ1Cer [B6-2],binding of Helicobacter pylori to the glycosphingolipid on TLC plates,Helicobacter pylori [1],non-binding; also recorded: inactive
same,binding of Helicobacter pylori to the glycosphingolipid on TLC plates,Helicobacter pylori [1]; listed as Galα3(Fucα2)Galβ4GlcNAcβ3Galβ4Glcβ3Cer,non-binding
Galα3Galβ4GlcNAcβ3Galβ4Glc(red)-HDA,binding activity of neoglycolipid with regard to Helicobacter pylori,Helicobacter pylori [1],clear binding activity
Galα3Galβ4GlcNAcβ3Galβ4GlcNAcβ3Galβ4GlcβCer,binding of Helicobacter pylori to the glycosphingolipid on TLC plates,Helicobacter pylori [1],higher activity
same,binding of Helicobacter pylori to the glycosphingolipid on TLC plates,Helicobacter pylori [1]; listed as no. 28,observed binding
Galα3Galβ4GlcNAcβ3Galβ4GlcβCer,binding of Helicobacter pylori to the glycosphingolipid on TLC plates,Helicobacter pylori [1],bind Helicobacter pylori
same,binding of Helicobacter pylori to the glycosphingolipid on TLC plates,Helicobacter pylori [1]; listed as B5,binding
same,binding of Helicobacter pylori to the glycosphingolipid on TLC plates,Helicobacter pylori [1]; listed as B5 glycosphingolipid,equally active
same,binding of Helicobacter pylori strain 032 to purified glycosphingolipids (FIGS. 7A and 7B),Helicobacter pylori [1],binding-active
Galα3Galβ4GlcNβ3Galβ4GlcβCer,binding of Helicobacter pylori to the glycosphingolipid on TLC plates,Helicobacter pylori [1],not binding
same,binding of Helicobacter pylori to the glycosphingolipid on TLC plates,Helicobacter pylori [1]; listed as Galα3Galβ4GlcNH2βGalβ4GlcβCer,non-binding
same,binding of Helicobacter pylori to the glycosphingolipid on TLC plates,Helicobacter pylori [1]; listed as no. 14,loss of bacterial binding
Galβ4GlcNAcβ3(Galβ4GlcNAcβ6)Galβ4GlcβCer,binding of Helicobacter pylori to the glycosphingolipid on TLC plates,Helicobacter pylori [1],destroyed
same,binding of Helicobacter pylori to the glycosphingolipid on TLC plates,Helicobacter pylori [1]; listed as glycosphingolipid from bovine buttermilk,non-binding
Galβ4GlcNAcβ3Galβ4GlcNAcβ3Galβ4GlcβCer,lowest amount of glycolipid giving a positive response on TLC plates,Helicobacter pylori [1],~0.2 nmol/spot
same,binding of Helicobacter pylori to the glycosphingolipid on TLC plates,Helicobacter pylori [1],weaker binding; also recorded: weaker activity
same,binding of Helicobacter pylori to the glycosphingolipid on TLC plates,Helicobacter pylori [1]; listed as Galβ4GlcNAcβ3Galβ4-GlcNAcβ3Galβ4GlcβCer,binding-active; also recorded: reduced affinity
same,binding of Helicobacter pylori to the glycosphingolipid on TLC plates,Helicobacter pylori [1]; listed as hexaglycosylceramides,displayed binding activity
same,binding frequency,Helicobacter pylori [1],~90%
Galβ4GlcNAcβ3Galβ4GlcβCer,lowest amount of glycolipid giving a positive response on TLC plates,Helicobacter pylori [1],~0.3 nmol/spot
same,binding of Helicobacter pylori to the glycosphingolipid on TLC plates,Helicobacter pylori [1],binding is weaker
same,binding of Helicobacter pylori to the glycosphingolipid on TLC plates,Helicobacter pylori [1]; listed as tetraglycosylceramides,displayed binding activity
same,binding of Helicobacter pylori strain 032 to purified glycosphingolipids (FIGS. 7A and 7B),Helicobacter pylori [1],binding
Galβ4GlcNβ3Galβ4GlcβCer,binding of Helicobacter pylori to the glycosphingolipid on TLC plates,Helicobacter pylori [1],not binding
same,binding of Helicobacter pylori to the glycosphingolipid on TLC plates,Helicobacter pylori [1]; listed as no. 6,loss of bacterial binding
Glc(A-methylamide)β3Galβ4GlcNAcβ3Galβ4GlcβCer,binding of Helicobacter pylori to the glycosphingolipid on TLC plates,Helicobacter pylori [1],very strong binding
GlcAβ3Galβ4GlcNAcβ3Galβ4GlcβCer,binding of Helicobacter pylori to the glycosphingolipid on TLC plates,Helicobacter pylori [1],binding active
GlcNAcβ3Galβ4GlcNAc(red)-HDA,binding activity of neoglycolipid with regard to Helicobacter pylori,Helicobacter pylori [1],weakly binding or inactive
GlcNAcβ3Galβ4GlcNAcβ3Galβ4GlcβCer,lowest amount of glycolipid giving a positive response on TLC plates,Helicobacter pylori [1],0.039 nmol/spot
same,binding of Helicobacter pylori to the glycosphingolipid on TLC plates,Helicobacter pylori [1],binding-active; also recorded: high affinity
same,binding of Helicobacter pylori to the glycosphingolipid on TLC plates,Helicobacter pylori [1]; listed as five-sugar glycosphingolipid from rabbit thymus,equally active
same,binding of Helicobacter pylori to the glycosphingolipid on TLC plates,Helicobacter pylori [1]; listed as pentaglycosylceramide,strong activity; also recorded: highly active; also recorded: most active species
same,binding of Helicobacter pylori to the glycosphingolipid on TLC plates,Helicobacter pylori [1]; listed as pentaglycosylceramides,displayed binding activity
same,binding frequency,Helicobacter pylori [1],~90%
GlcNAcβ3Galβ4GlcNAcβ6GlcNAc(red)-HDA,binding activity of neoglycolipid with regard to Helicobacter pylori,Helicobacter pylori [1],strong binding activity
same,binding activity of neoglycolipid with regard to Helicobacter pylori,Helicobacter pylori [1]; listed as GlcNAcβ3Galβ4GlcNAcβ6GlcNAc,high affinity binding
GlcNAcβ3Galβ4GlcβCer,binding of Helicobacter pylori to the glycosphingolipid on TLC plates,Helicobacter pylori [1],not binding
same,binding of Helicobacter pylori to the glycosphingolipid on TLC plates,Helicobacter pylori [1]; listed as triglycosylceramide,inactive
Glcβ3Galβ4GlcNAcβ3Galβ4GlcβCer,binding of Helicobacter pylori to the glycosphingolipid on TLC plates,Helicobacter pylori [1],strong binding
NeuAcα3GalNAcβ3Galβ4GlcNAcβ3Galβ4Glcβ1Cer [NeuAc-x2],binding of Helicobacter pylori to the glycosphingolipid on TLC plates,Helicobacter pylori [1]; listed as Neu5Acα3GalNAcβ3Galβ4GlcNAcβ3Galβ4GlcβCer,did not appear to bind
same,binding of Helicobacter pylori to the glycosphingolipid on TLC plates,Helicobacter pylori [1]; listed as NeuAcα3GalNAcβ3Galβ4GlcNAcβ3Galβ4GlcβCer,non-binding
same,binding of Helicobacter pylori to the glycosphingolipid on TLC plates,Helicobacter pylori [1]; listed as no. 24,complete loss of binding
same,binding of Helicobacter pylori strain 032 to purified glycosphingolipids (FIGS. 7A and 7B),Helicobacter pylori [1],non-binding
NeuGcα3Galβ4GlcNAcβ3Galβ4GlcNAcβ3Galβ4GlcβCer,binding by Helicobacter pylori isolates,Helicobacter pylori [1]; about 60 isolates tested,bound by most Helicobacter pylori isolates
same,binding of Helicobacter pylori to the glycosphingolipid on TLC plates,Helicobacter pylori [1],weaker binding
maltoheptaose(red)-HDA [reference compound],binding activity of neoglycolipid with regard to Helicobacter pylori,Helicobacter pylori [1],weakly binding or inactive
sialyl-lactose,inhibition of Helicobacter pylori binding to human gastrointestinal cell lines,[2],inhibits
same,efficacy in rhesus monkey animal model of the infection,Helicobacter pylori [3],effective
